Consider eleven compounds from patent US12486278B2, “MASP-2 inhibitors and methods of use” (Omeros Corporation, priority 2019, dated 2025).

Structures can show the parent of a compound that is named as a salt. Some results are limits rather than exact numbers.

For the experiment, the target named is T1, MASP-2 (CCP1-CCP2-SP) (Homo sapiens, UniProt O00187).
T1 construct: 15 μL of Enzyme MASP-2 (CCP1-CCP2-SP) in Assay Buffer
T1 sequence (O00187 445-686 limits assumed): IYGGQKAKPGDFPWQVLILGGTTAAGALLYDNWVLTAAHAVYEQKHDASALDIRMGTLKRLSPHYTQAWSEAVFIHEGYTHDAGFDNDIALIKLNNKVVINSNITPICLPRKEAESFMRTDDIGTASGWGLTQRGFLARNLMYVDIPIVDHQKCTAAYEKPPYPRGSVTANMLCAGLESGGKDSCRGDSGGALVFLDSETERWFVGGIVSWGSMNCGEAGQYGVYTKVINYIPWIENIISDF
T1 sequence (O00187 298-444 partner limits assumed): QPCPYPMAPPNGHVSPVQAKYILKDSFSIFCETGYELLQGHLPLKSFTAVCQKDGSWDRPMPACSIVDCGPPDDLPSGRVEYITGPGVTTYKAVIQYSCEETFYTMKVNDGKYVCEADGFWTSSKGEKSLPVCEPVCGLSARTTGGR
Nature of the experiment: Enzymatic Assay for MASP-2 (fluorogenic substrate). Conditions: fluorogenic substrate based on C2 cleavage site; room temperature, 20 min; 20 mM HEPES pH 7.4, 140 mM NaCl, 0.1% Tween 20. Format: biochemical. A digest of the protocol: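 Fluorogenic substrate built on the C2 cleavage site, in 20 mM HEPES pH 7.4, 140 mM NaCl, 0.1% Tween 20, run at room temperature for 20 min before an acetic acid stop. Fluorescence normalised to DMSO-only and no-enzyme controls; IC50 taken as equivalent to Ki, with tight- or slow-binding inhibitors treated separately.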
The Ki is the dissociation constant of the complex between target and ligand, obtained from inhibition or displacement. Low values mean a stronger hold on the target, high ones a looser hold on the target. Compound `C[C@H](NC(=O)[C@H]1C[C@@H](c2ccncc2)CN1)C(=O)NCc1ccc(C(=N)N)cc1` [Compound I-95, (2R,4S)—N—((S)-1-((4-carbamimidoylbenzyl)amino)-1-oxopropan-2-yl)-4-(pyridin-4-yl)pyrrolidine-2-carboxamide di-trifluoroacetate] registered a Ki of 500 to 2500 nM.
As for `C[C@H](NC(=O)[C@H]1C[C@H](Oc2ccccc2)CN1)C(=O)NCc1ccc(C(=N)N)cc1` [Compound I-96, (2R,4S)—N—((S)-1-((4-Carbamimidoylbenzyl)amino)-1-oxopropan-2-yl)-4-phenoxypyrrolidine-2-carboxamide di-trifluoroacetate], the inhibitory constant (Ki) was below 500 nM.
In the case of `C[C@H](NC(=O)[C@H]1C[C@H](Oc2ccccc2)CN1)C(=O)NCc1cc2cnccc2[nH]1` [Compound I-97, (2R,4S)—N—((S)-1-(((1H-Pyrrolo[3,2-c]pyridin-2-yl)methyl)amino)-1-oxopropan-2-yl)-4-phenoxypyrrolidine-2-carboxamide di-trifluoroacetate], the Ki is below 500 nM.
In the case of `C[C@H](NC(=O)[C@H]1C[C@@H](c2ccccc2)CCN1)C(=O)NCc1cc2c(s1)CNC2` [Compound I-98, (2R,4S)—N—((S)-1-(((5,6-Dihydro-4H-Thieno[2,3-C]Pyrrol-2-Yl)Methyl)Amino)-1-Oxopropan-2-Yl)-4-Phenylpiperidine-2-Carboxamide Di-Trifluoroacetate Salt] it was below 500 nM.
`C[C@H](NC(=O)[C@H]1C[C@H](Cc2ccccc2)CN1)C(=O)NCc1cc2c(s1)CNC2` [Compound I-99, (2R,4S)-4-Benzyl-N—((S)-1-(((5,6-Dihydro-4H-Thieno[2,3-C]Pyrrol-2-Yl)Methyl)Amino)-1-Oxopropan-2-Yl)Pyrrolidine-2-Carboxamide Di-Trifluoroacetate Salt]: the Ki was below 500 nM.
Turning to `C[C@H](NC(=O)c1cc(Cc2ccc(-c3ccccc3)cc2)c[nH]1)C(=O)NCc1ccc(C(=N)N)cc1` [Compound I-100, (S)-4-([1,1′-Biphenyl]-4-ylmethyl)-N-(1-((4-carbamimidoylbenzyl)amino)-1-oxopropan-2-yl)-1H-pyrrole-2-carboxamide trifluoroacetate], the Ki is below 500 nM.
The compound `C[C@H](NC(=O)[C@H]1C[C@@H](c2ccc(-c3cccnc3)cc2)CCN1)C(=O)NCc1cc(Cl)ccc1-n1cnnn1` [Compound I-101, (2R,4S)—N—((S)-1-((5-chloro-2-(1H-tetrazol-1-yl)benzyl)amino)-1-oxopropan-2-yl)-4-(4-(pyridin-3-yl)phenyl)piperidine-2-carboxamide trifluoroacetate] gave a Ki below 500 nM.
In turn, `C[C@H](NC(=O)[C@H]1C[C@@H](c2ccc(-c3ccccc3)cc2)CCN1)C(=O)NCc1cc(Cl)ccc1-n1cnnn1` [Compound I-102, (2R,4S)-4-([1,1′-Biphenyl]-4-yl)-N—((S)-1-((5-chloro-2-(1H-tetrazol-1-yl)benzyl)amino)-1-oxopropan-2-yl)piperidine-2-carboxamide trifluoroacetate] came in with a Ki below 500 nM.
In the case of `O=C(NCc1cc(Cl)ccc1-n1cnnn1)[C@@H]1CCN1C(=O)[C@H]1C[C@@H](c2ccc(-c3ccccc3)cc2)CCN1` [Compound I-103, (S)-1-((2R,4S)-4-([1,1′-Biphenyl]-4-yl)piperidine-2-carbonyl)-N-(5-chloro-2-(1H-tetrazol-1-yl)benzyl)azetidine-2-carboxamide trifluoroacetate], the Ki was below 500 nM.
As for `CCOC(=O)CCN1CC[C@H](c2ccccc2)C[C@@H]1C(=O)N[C@@H](C)C(=O)NCc1cc2cnccc2[nH]1` [Compound I-106, Ethyl 3-((2R,4S)-2-(((S)-1-(((1H-pyrrolo[3,2-c]pyridin-2-yl)methyl)amino)-1-oxopropan-2-yl)carbamoyl)-4-phenylpiperidin-1-yl)propanoate], the Ki is below 500 nM.
In the case of `C[C@H](NC(=O)[C@H]1C[C@@H](c2ccccc2)CCN1CCC(=O)O)C(=O)NCc1cc2cnccc2[nH]1` [Compound I-107, 3-((2R,4S)-2-(((S)-1-(((1H-pyrrolo[3,2-c]pyridin-2-yl)methyl)amino)-1-oxopropan-2-yl)carbamoyl)-4-phenylpiperidin-1-yl)propanoic acid di-trifluoroacetate salt], the Ki is below 500 nM.
